Legend:
[1] = The ability to inhibit [3H]- uracil incorporation by Toxoplasma gondii in cultures of HEL cells was tested; type: functional, cell-based, Homo sapiens
[2] = Ratio of the inhibitory concentrations against [3H]-uracil incorporation into nuclear DNA and Toxoplasma gondii (Tg) DHFR; IC50 ([3H]uracil incorporation)/IC50 (Tg); type: functional
Dihydrofolate reductase [3] = target: T1, Dihydrofolate reductase (Pneumocystis carinii, UniProt P16184)
T1 sequence (P16184 whole entry): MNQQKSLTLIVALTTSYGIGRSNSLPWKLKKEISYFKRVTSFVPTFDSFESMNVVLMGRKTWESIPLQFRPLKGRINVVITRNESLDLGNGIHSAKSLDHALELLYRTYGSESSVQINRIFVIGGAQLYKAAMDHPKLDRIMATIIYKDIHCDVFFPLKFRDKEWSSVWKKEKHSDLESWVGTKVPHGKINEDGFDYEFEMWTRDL
Description: The ability to inhibit Pneumocystis carinii Dihydrofolate reductase was tested

[4] = target: T2, Bifunctional dihydrofolate reductase-thymidylate synthase (Toxoplasma gondii, UniProt Q07422)
T2 sequence (Q07422 whole entry): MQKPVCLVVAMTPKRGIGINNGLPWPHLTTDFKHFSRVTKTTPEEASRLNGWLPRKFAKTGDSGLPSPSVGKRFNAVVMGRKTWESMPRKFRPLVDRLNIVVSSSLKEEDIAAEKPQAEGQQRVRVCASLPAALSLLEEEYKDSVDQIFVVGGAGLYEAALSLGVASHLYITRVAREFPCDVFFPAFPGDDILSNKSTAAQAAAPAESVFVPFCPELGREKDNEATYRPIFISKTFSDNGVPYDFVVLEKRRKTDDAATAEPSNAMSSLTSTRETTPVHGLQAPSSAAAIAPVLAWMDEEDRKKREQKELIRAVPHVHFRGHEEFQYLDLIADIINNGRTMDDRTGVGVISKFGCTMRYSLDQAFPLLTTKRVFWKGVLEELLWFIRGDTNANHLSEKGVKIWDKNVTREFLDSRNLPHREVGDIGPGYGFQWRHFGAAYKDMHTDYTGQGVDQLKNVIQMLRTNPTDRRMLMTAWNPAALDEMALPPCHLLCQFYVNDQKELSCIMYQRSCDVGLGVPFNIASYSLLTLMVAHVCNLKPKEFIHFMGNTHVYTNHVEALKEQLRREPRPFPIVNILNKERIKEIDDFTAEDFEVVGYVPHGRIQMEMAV
Description: The ability to inhibit Toxoplasma gondii Dihydrofolate reductase was tested

Dihydrofolate reductase [5] = target: T3, Dihydrofolate reductase (Rattus norvegicus, UniProt Q920D2)
T3 sequence (Q920D2 whole entry): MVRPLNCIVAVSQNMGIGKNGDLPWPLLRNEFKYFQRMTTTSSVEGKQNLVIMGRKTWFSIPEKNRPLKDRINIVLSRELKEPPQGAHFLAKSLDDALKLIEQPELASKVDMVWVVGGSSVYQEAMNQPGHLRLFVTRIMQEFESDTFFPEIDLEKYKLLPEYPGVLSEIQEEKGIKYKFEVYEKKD
Description: The ability to inhibit rat liver Dihydrofolate reductase was tested

786-0 = assay: Compound was tested for the growth inhibition of 786-0 renal tumor cell line; type: functional, cell-based; details: Homo sapiens
A498 = assay: Compound was tested for the growth inhibition of A498 renal tumor cell line; type: functional, cell-based; details: Homo sapiens
ACHN = assay: Compound was tested for the growth inhibition of ACHN renal tumor cell line; type: functional, cell-based; details: Homo sapiens
A549 = assay: Compound was tested for the growth inhibition of A549 lung tumor cell line; type: functional, cell-based; details: Homo sapiens
BT-549 = assay: Compound was tested for the growth inhibition of BT-549 breast carcinoma cell line; type: functional, cell-based; details: Homo sapiens
COLO 205 = assay: Compound was tested for the growth inhibition of COLO 205 colon tumor cell line; type: functional, cell-based; details: Homo sapiens
EKVX = assay: Compound was tested for the growth inhibition of EKVX lung tumor cell line; type: functional, cell-based; details: Homo sapiens
HCT-116 = assay: Compound was tested for the growth inhibition of HCT116 colon tumor cell line; type: functional, cell-based; details: Homo sapiens
IGROV-1 = assay: Compound was tested for the growth inhibition of IGROV1 ovarian tumor cell line; type: functional, cell-based; details: Homo sapiens
KM12 = assay: Compound was tested for the growth inhibition of KM12 colon tumor cell line; type: functional, cell-based; details: Homo sapiens
NCI-H460 = assay: Compound was tested for the growth inhibition of NCI-H460 lung tumor cell line; type: functional, cell-based; details: Homo sapiens
OVCAR-3 = assay: Compound was tested for the growth inhibition of OVCAR-3 ovarian tumor cell line; type: functional, cell-based; details: Homo sapiens
PC-3 = assay: Compound was tested for the growth inhibition of PC3 prostate tumor cell line; type: functional, cell-based; details: Homo sapiens
SF-268 = assay: Compound was tested for the growth inhibition of SF-268 CNS tumor cell line; type: functional, cell-based; details: Homo sapiens
SF-295 = assay: Compound was tested for the growth inhibition of SF-295 CNS tumor cell line; type: functional, cell-based; details: Homo sapiens
SN12C = assay: Compound was tested for the growth inhibition of SN12C renal tumor cell line; type: functional, cell-based; details: Homo sapiens
SF-539 = assay: Compound was tested for the growth inhibition of SF-539 CNS tumor cell line; type: functional, cell-based; details: Homo sapiens
SK-MEL-5 = assay: Compound was tested for the growth inhibition of SK-MEL-5 melanoma tumor cell line; type: functional, cell-based; details: Homo sapiens
T47D = assay: Compound was tested for the growth inhibition of T-47D breast tumor cell line; type: functional, cell-based; details: Homo sapiens
UACC-257 = assay: Compound was tested for the growth inhibition of UACC-257 melanoma tumor cell line; type: functional, cell-based; details: Homo sapiens
LOX IMVI = assay: Compound was tested for the growth inhibition of LOX IMVI melanoma tumor cell line; type: functional, cell-based; details: Homo sapiens
NCI-H226 = assay: Compound was tested for the growth inhibition of NCI-H226 lung tumor cell line; type: functional, cell-based; details: Homo sapiens
OVCAR-8 = assay: Compound was tested for the growth inhibition of OVCAR-8 ovarian tumor cell line; type: functional, cell-based; details: Homo sapiens
SW-620 = assay: Compound was tested for the growth inhibition of SW-620 colon tumor cell line; type: functional, cell-based; details: Homo sapiens
MDA-N = assay: Compound was tested for the growth inhibition of MDA-N breast carcinoma cell line; type: functional, cell-based; details: Homo sapiens

SMILES: Nc1nc(N)c2c(n1)CCC(Cc1cccc(OC(F)(F)F)c1)C2 (stereo not given)
- IC50 [1]: 130 nM
- Ratio [2]: 9.3
- IC50 (Dihydrofolate reductase [3]): 100 nM
- IC50 [4]: 14 nM
- IC50 (Dihydrofolate reductase [5]): 79 nM

SMILES: COc1cc(CC2CCc3nc(N)nc(N)c3C2)cc(OC)c1OC (stereo not given)
- IC50 (786-0): 60 nM
- IC50 (A498): 21000 nM
- IC50 (ACHN): 270 nM
- IC50 (A549): 780 nM
- IC50 (BT-549): 11000 nM
- IC50 (COLO 205): 1600 nM
- IC50 (EKVX): 710 nM
- IC50 (HCT-116): 50 nM
- IC50 [1]: 210 nM
- IC50 (IGROV-1): 190 nM
- IC50 (KM12): 1300 nM
- IC50 (NCI-H460): 60 nM
- IC50 (OVCAR-3): 9800 nM
- IC50 (PC-3): 190 nM
- IC50 (SF-268): 190 nM
- IC50 (SF-295): 250 nM
- IC50 (SN12C): 36000 nM
- IC50 (SF-539): 1000 nM
- IC50 (SK-MEL-5): 80 nM
- IC50 (T47D): 22000 nM
- IC50 (UACC-257): 27000 nM
- Ratio [2]: 8.8
- IC50 (LOX IMVI): 80 nM
- IC50 (Dihydrofolate reductase [3]): 91 nM
- IC50 [4]: 24 nM
- IC50 (Dihydrofolate reductase [5]): 38 nM

SMILES: COc1ccccc1CC1CCc2nc(N)nc(N)c2C1 (stereo not given)
- IC50 (Dihydrofolate reductase [3]): 450 nM
- IC50 [4]: 14 nM
- IC50 (Dihydrofolate reductase [5]): 120 nM

SMILES: Cc1ccccc1CC1CCc2nc(N)nc(N)c2C1 (stereo not given)
- IC50 (Dihydrofolate reductase [3]): 250 nM
- IC50 [4]: 23 nM
- IC50 (Dihydrofolate reductase [5]): 110 nM

SMILES: COc1ccc(CC2CCc3nc(N)nc(N)c3C2)cc1OC (stereo not given)
- IC50 (786-0): 60 nM
- IC50 (A498): 24000 nM
- IC50 (ACHN): 240 nM
- IC50 (A549): 60 nM
- IC50 (BT-549): 270 nM
- IC50 (COLO 205): 3800 nM
- IC50 (EKVX): 5700 nM
- IC50 (HCT-116): 40 nM
- IC50 [1]: 81 nM
- IC50 (IGROV-1): 130 nM
- IC50 (KM12): 1300 nM
- IC50 (NCI-H460): 40 nM
- IC50 (NCI-H226): 12000 nM
- IC50 (OVCAR-8): 21000 nM
- IC50 (PC-3): 72 nM
- IC50 (SF-268): 300 nM
- IC50 (SW-620): 990 nM
- IC50 (SF-295): 250 nM
- IC50 (SN12C): 23000 nM
- IC50 (T47D): 19000 nM
- IC50 (UACC-257): 15000 nM
- Ratio [2]: 3.5
- IC50 (MDA-N): 51 nM
- IC50 (LOX IMVI): 70 nM
- IC50 (Dihydrofolate reductase [3]): 100 nM
- IC50 [4]: 23 nM
- IC50 (Dihydrofolate reductase [5]): 63 nM

SMILES: COc1ccc(OC)c(CN2CCc3nc(N)nc(N)c3C2)c1
- IC50 (Dihydrofolate reductase [3]): 3300 nM
- IC50 [4]: 300 nM
- IC50 (Dihydrofolate reductase [5]): 1400 nM

SMILES: COc1ccc(CC2CCc3nc(N)nc(N)c3C2)cc1 (stereo not given)
- IC50 (Dihydrofolate reductase [3]): 440 nM
- IC50 [4]: 50 nM
- IC50 (Dihydrofolate reductase [5]): 77 nM

SMILES: Nc1nc(N)c2c(n1)CCC(Cc1ccc(OC(F)(F)F)cc1)C2 (stereo not given)
- IC50 (Dihydrofolate reductase [3]): 580 nM
- IC50 [4]: 73 nM
- IC50 (Dihydrofolate reductase [5]): 170 nM

SMILES: COc1ccc(OC)c(CC2CCc3nc(N)nc(N)c3C2)c1 (stereo not given)
- IC50 (786-0): 60 nM
- IC50 (A498): 10000 nM
- IC50 (A549): < 10 nM
- IC50 (BT-549): 330 nM
- IC50 (COLO 205): 10000 nM
- IC50 (EKVX): 16000 nM
- IC50 (HCT-116): < 10 nM
- IC50 (KM12): 2700 nM
- IC50 (NCI-H460): < 10 nM
- IC50 (NCI-H226): 31000 nM
- IC50 (OVCAR-3): 15000 nM
- IC50 (OVCAR-8): 21000 nM
- IC50 (PC-3): 35 nM
- IC50 (SW-620): 320 nM
- IC50 (SN12C): 15000 nM
- IC50 (SF-539): 430 nM
- IC50 (T47D): 20000 nM
- IC50 (UACC-257): 8400 nM
- IC50 (MDA-N): < 10 nM
- IC50 (LOX IMVI): 60 nM
- IC50 (Dihydrofolate reductase [3]): 57 nM
- IC50 [4]: 21 nM
- IC50 (Dihydrofolate reductase [5]): 34 nM

SMILES: COc1cc(CN2CCc3nc(N)nc(N)c3C2)cc(OC)c1OC
- IC50 (Dihydrofolate reductase [3]): 6900 nM
- IC50 [4]: 200 nM
- IC50 (Dihydrofolate reductase [5]): 2200 nM

SMILES: Cc1cccc(CC2CCc3nc(N)nc(N)c3C2)c1 (stereo not given)
- IC50 (Dihydrofolate reductase [3]): 340 nM
- IC50 [4]: 36 nM
- IC50 (Dihydrofolate reductase [5]): 110 nM

SMILES: Nc1nc(N)c2c(n1)CCC(CC1CCCO1)C2 (stereo not given)
- IC50 (Dihydrofolate reductase [3]): 880 nM
- IC50 [4]: 40 nM
- IC50 (Dihydrofolate reductase [5]): 270 nM

SMILES: CCc1nc(N)nc(N)c1-c1ccc(Cl)cc1 [PYRIMETHAMINE]
- IC50 [1]: 670 nM

SMILES: Nc1nc(N)c2c(n1)CCC(Cc1ccccc1)C2 (stereo not given)
- IC50 [1]: 250 nM
- Ratio [2]: 7.8
- IC50 (Dihydrofolate reductase [3]): 290 nM
- IC50 [4]: 32 nM
- IC50 (Dihydrofolate reductase [5]): 180 nM

SMILES: CCC1CCc2nc(N)nc(N)c2C1 (stereo not given)
- IC50 (Dihydrofolate reductase [3]): 6900 nM
- IC50 [4]: 1100 nM
- IC50 (Dihydrofolate reductase [5]): 3000 nM

SMILES: Nc1nc(N)c2c(n1)CCC(Cc1ccc(Cl)c(Cl)c1)C2 (stereo not given)
- IC50 (Dihydrofolate reductase [3]): 15000 nM
- IC50 [4]: 2600 nM
- IC50 (Dihydrofolate reductase [5]): 7300 nM

SMILES: Nc1nc(N)c2c(n1)CCC(Cc1cccs1)C2 (stereo not given)
- IC50 (Dihydrofolate reductase [3]): 210 nM
- IC50 [4]: 62 nM
- IC50 (Dihydrofolate reductase [5]): 80 nM

SMILES: Nc1nc(N)c2c(n1)CCC(Cc1cccc(C(F)(F)F)c1)C2 (stereo not given)
- IC50 (Dihydrofolate reductase [3]): 400 nM
- IC50 [4]: 140 nM
- IC50 (Dihydrofolate reductase [5]): 190 nM

SMILES: COc1cccc(CC2CCc3nc(N)nc(N)c3C2)c1 (stereo not given)
- IC50 (Dihydrofolate reductase [3]): 270 nM
- IC50 [4]: 21 nM
- IC50 (Dihydrofolate reductase [5]): 110 nM

SMILES: Nc1nc(N)c2c(n1)CCC(c1ccccc1)C2 (stereo not given)
- IC50 (Dihydrofolate reductase [3]): 2200 nM
- IC50 [4]: 1300 nM
- IC50 (Dihydrofolate reductase [5]): 1900 nM

SMILES: CC(C)(C)C1CCc2nc(N)nc(N)c2C1 (stereo not given)
- IC50 (Dihydrofolate reductase [3]): 180 nM
- IC50 [4]: 18 nM
- IC50 (Dihydrofolate reductase [5]): 65 nM

SMILES: Nc1nc(N)c2c(n1)CCC(Cc1ccsc1)C2 (stereo not given)
- IC50 (Dihydrofolate reductase [3]): 1700 nM
- IC50 [4]: 49 nM
- IC50 (Dihydrofolate reductase [5]): 130 nM

From ChEMBL document CHEMBL1132605 (J Med Chem, 1999)
